Measured values published in US6911468B2, “Tyrosine phosphatase inhibitors” (Takeda Chemical Industries, Ltd., priority 2000, dated 2005).
pIC50: −log10 of the molar value.

Test system: not given
Test: not given
Conditions: not given

Row | melting point [°C] | Compound
1 | > 300 | O=C(O)/C=C/c1ccc(-c2cccn2-c2ccc(/C=C/C(=O)O)cc2)cc1 [Example 12, (E)-3-[4-(1-{4-[(E)-3-Hydroxy-3-oxo-1-propenyl]phenyl}-1H-pyrrol-2-yl)phenyl]-2-propenoic acid]
2 | 132 to 133 | CCCCCCCCCCNC(=O)c1cc(-c2ccc(O[C@H](Cc3ccccc3)C(=O)O)cc2)n(CCc2ccc(Br)cc2)c1C [Example 118, (2R)-2-{4-[1-(4-Bromophenethyl)-4-(decylaminocarbonyl)-5-methyl-1H-pyrrol-2-yl]phenoxy}-3-phenylpropanoic acid]

Molecular target: T1, PTP1B (Homo sapiens, UniProt P18031)
T1 construct: in order to express 1-321 amino acid region encoding enzyme active domain of PTP1B; made in house; host or cells: E. coli BL21 DE3 pLysS
T1 sequence (P18031 1-321): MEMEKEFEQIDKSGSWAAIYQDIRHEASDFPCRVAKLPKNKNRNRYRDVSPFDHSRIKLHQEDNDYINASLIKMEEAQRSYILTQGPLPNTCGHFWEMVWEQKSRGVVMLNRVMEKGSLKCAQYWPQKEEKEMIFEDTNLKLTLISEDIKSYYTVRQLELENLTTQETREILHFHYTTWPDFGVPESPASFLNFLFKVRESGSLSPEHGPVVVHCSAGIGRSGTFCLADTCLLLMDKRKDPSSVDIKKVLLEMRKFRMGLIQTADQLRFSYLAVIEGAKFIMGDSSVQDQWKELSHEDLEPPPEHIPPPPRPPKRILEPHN
Test: Measurement of PTP1B Inhibitory Activity (dephosphorylation of p-nitrophenylphosphate, absorbance at 405 nm)
Type: biochemical
Conditions: PTP1B enzyme active domain (1-321 amino acid, 6 histidine residues at C-terminal), pNPP substrate, pH 6.5, 37° C. for 1 hour
Protocol: Based on the sequence of human PTP-1B registered in Genbank (M31724) database, primer 1 and primer 2 were synthesized, and PTP1B cDNA was amplified from human skeletal muscle cDNA library (Clonetech, Inc. HL5002a) according to PCR method using these primers. The cycle of reactions at 98° C. for 10 seconds, at 58° C. for 30 seconds and at 72° C. for 90 seconds was repeated 35 cycles. The PCR reaction product (1322 bp) was cloned to pT7 Blue-T vector (Novagen, Inc.) to identify the base sequence.
Human PTP 1B cDNA (1322 bp) (100 ng) was amplified with primer 3 and primer 4 in order to express 1-321 amino acid region encoding enzyme active domain of PTP1B. The PCR reaction product (976 bp) was cloned to pT7 Blue-T vector (Novagen, Inc.) to identify the base sequence.
The pT7 Blue-T vector-human PTP1B cDNA (976 bp) was cleaved with restriction enzymes NdeI and SalI (Takara Shuzo Co., Ltd.) and subjected to electrophoresis using 0.7% agarose gel, and a 969 bp fragment was excised and purified. The fragment was introduced into pET32a (+) vector (Novagen, Inc.) cleaved with restriction enzymes NdeI and XhoI (Takara Shuzo Co., Ltd.), to constitute a vector pET32a (+)-human PTP1B cDNA (969 bp), which expresses PTP1B (321 amino acid) with 6 histidine residues binded to a C-terminal thereof under a control of T7 lac promotor.
E.coli BL21 DE3 pLysS (Novagen, Inc.) was transformed with the pET32a (+)-human PTP 1B cDNA (969 bp) to give an ampicillin (50 μg/ml) resistant bacterium. This was shake cultured at 37° C. using 5L of 2xYT medium (ampicillin (50 μg/ml)). When OD600nm reached to 0.5, IPTG (Isopropyl b-D-Thiogalactoside) was added to the culture medium so as to be 1 mM in order to induce the expression of protein, and this medium was further cultured at 37° C. overnight. The bacterium was collected by centrifugation (8000 rpm, 10 minutes, 4° C.).
The bacterium was suspended in lysis buffer (50 ml) (20 mM Tris HCl (pH 8.0), 0.5 M NaCl, 1 mM PMSF, 5 mM benzamidine, Lysozyme 5 mg) and crushed by sonication. To the supernatant after centrifuging (12000 rpm, 10 minutes, 4° C.) was added imidazole so as to be 50 mM and the mixture was mixed with His Bind resin (Novagen, Inc.) binded with Ni ion (4° C., overnight). The mixture was washed with 200 ml of (20 mM Tris HCl (pH 8.0), 0.5 M NaCl, 1 mM PMSF, 5 mM benzamidine, 50 mM imidazole), eluted with (20 mM Tris HCl (pH 8.0), 0.5 M NaCl, 1 mM PMSF, 5 mM benzamidine, 400 mM imidazole) and concentrated by centrifugation using Ultrafree-15 Biomax-50 (MILLIPORE Corp.) (11 mg/ml, 4ml). The purified protein (PTP1B) was identified by Western blotting method using SDS-PAGE, coomassie Blue stain and anti-PTP1B antibody (UBI Inc.).
The PTP1B inhibitory activity of the test compound was evaluated by measuring the ability of the test compound to dephosphorylate p-nitrophenylphosphate (pNPP) (a change of the absorbance at 405 nm).
To a buffer for measurement of the activity (0.1 M sodium acetate (pH 6.5), 1 mM EDTA, 10 mM DTT) (10 ml) was added PTP1B enzyme solution (2 μl) and the mixture was added to each well of a 96-well microtiter plate (100 μl each). A solution of the test compound in DMSO (10 μl) and 2 mM pNPP/the buffer for measurement of the activity (90 μl) were then added to each well, and the absorbance at 405 nm was measured. After keeping at 37° C. for 1 hour, the absorbance was measured again to evaluate a change of the absorbance. Regarding the change of the absorbance in the absence of the test compound as 100%, the concentration of the compound necessary for 50% inhibition (IC50 value) was calculated.

Row | Compound | pIC50
3 | O=C(O)/C=C/c1ccc(-c2cccn2-c2ccc(/C=C/C(=O)O)cc2)cc1 [Example 12, (E)-3-[4-(1-{4-[(E)-3-Hydroxy-3-oxo-1-propenyl]phenyl}-1H-pyrrol-2-yl)phenyl]-2-propenoic acid] | 5.51
4 | CCCCCCCCCCCCCn1c(C)ccc1-c1ccc(O[C@H](Cc2ccccc2)C(=O)O)cc1 [Example 66, (2R)-2-[4-(5-Methyl-1-tridecyl-1H-pyrrol-2-yl)phenoxy]-3-phenylpropanoic acid] | 6.77
5 | Cc1ccc(-c2ccc(O[C@H](Cc3ccccc3)C(=O)O)cc2)n1Cc1ccccc1 [Example 48, (2R)-2-[4-(1-Benzyl-5-methyl-1H-pyrrol-2-yl)phenoxy]-3-phenylpropanoic acid] | 6.44
6 | CCCCCCCCCCn1c(C)ccc1-c1ccc(O[C@H](Cc2ccccc2)C(=O)O)cc1 [Example 62, (2R)-2-[4-(1-Decyl-5-methyl-1H-pyrrol-2-yl)phenoxy]-3-phenylpropanoic acid] | 6.68
7 | Cc1ccc(-c2cc(Br)c(O[C@H](Cc3ccccc3)C(=O)O)c(Br)c2)n1-c1ccc(Br)cc1 [Example 8, (2R)-2-{2,6-Dibromo-4-[1-(4-bromophenyl)-5-methyl-1H-pyrrol-2-yl]phenoxy}-3-phenylpropanoic acid] | 6.42

Next, values leading:

Row | pIC50 | Compound
8 | 5.96 | CCCc1ccc(-c2ccc(O[C@H](Cc3ccccc3)C(=O)O)cc2)n1-c1ccc(Br)cc1 [Example 34, (2R)-2-{4-[1-(4-Bromophenyl)-5-propyl-1H-pyrrol-2-yl]phenoxy}-3-phenylpropanoic acid]
9 | 5.92 | O=C(O)[C@@H](Cc1ccccc1)Oc1ccc(-c2cccn2-c2ccc(Cl)cc2)cc1 [Example 40, (2R)-2-{4-[1-(4-Chlorophenyl)-1H-pyrrol-2-yl]phenoxy}-3-phenylpropanoic acid]
10 | 6.48 | Cc1ccc(-c2ccc(O[C@H](Cc3ccccc3)C(=O)O)cc2)n1-c1ccc(Cl)cc1 [Example 44, (2R)-2-{4-[1-(4-chlorophenyl)-5-methyl-1H-pyrrol-2-yl]phenoxy}-3-phenylpropanoic acid]
11 | 5.80 | Cc1ccc(-n2cccc2-c2ccc(O[C@H](Cc3ccccc3)C(=O)O)cc2)cc1 [Example 38, (2R)-2-{4-[1-(4-Methylphenyl)-1H-pyrrol-2-yl]phenoxy}-3-phenylpropanoic acid]
